The source made the active and inactive calls. No cut-off for these calls is given here.
Key:
[1] = system: K562; assay: Inhibition of doxorubicin efflux in human K562 cells at 25 uM preincubated for 1 hr followed by doxorubicin addition measured after 1 hr by flow cytometry; format: functional, cell-based
[2] = molecular target: T1, ATP-dependent translocase ABCB1 (Homo sapiens, UniProt P08183); assay: (§1) Inhibition of P-gp-mediated doxorubicin efflux in human Lucena 1 cells assessed as ratio of doxorubicin fluorescence intensity in presence of compound to doxorubicin fluorescence intensity in absence of compound at 1.56 uM preincubated for 1 hr followed by doxorubicin addition measured after 1 hr by flow cytometry; format: cell-based
T1 sequence (P08183 whole entry): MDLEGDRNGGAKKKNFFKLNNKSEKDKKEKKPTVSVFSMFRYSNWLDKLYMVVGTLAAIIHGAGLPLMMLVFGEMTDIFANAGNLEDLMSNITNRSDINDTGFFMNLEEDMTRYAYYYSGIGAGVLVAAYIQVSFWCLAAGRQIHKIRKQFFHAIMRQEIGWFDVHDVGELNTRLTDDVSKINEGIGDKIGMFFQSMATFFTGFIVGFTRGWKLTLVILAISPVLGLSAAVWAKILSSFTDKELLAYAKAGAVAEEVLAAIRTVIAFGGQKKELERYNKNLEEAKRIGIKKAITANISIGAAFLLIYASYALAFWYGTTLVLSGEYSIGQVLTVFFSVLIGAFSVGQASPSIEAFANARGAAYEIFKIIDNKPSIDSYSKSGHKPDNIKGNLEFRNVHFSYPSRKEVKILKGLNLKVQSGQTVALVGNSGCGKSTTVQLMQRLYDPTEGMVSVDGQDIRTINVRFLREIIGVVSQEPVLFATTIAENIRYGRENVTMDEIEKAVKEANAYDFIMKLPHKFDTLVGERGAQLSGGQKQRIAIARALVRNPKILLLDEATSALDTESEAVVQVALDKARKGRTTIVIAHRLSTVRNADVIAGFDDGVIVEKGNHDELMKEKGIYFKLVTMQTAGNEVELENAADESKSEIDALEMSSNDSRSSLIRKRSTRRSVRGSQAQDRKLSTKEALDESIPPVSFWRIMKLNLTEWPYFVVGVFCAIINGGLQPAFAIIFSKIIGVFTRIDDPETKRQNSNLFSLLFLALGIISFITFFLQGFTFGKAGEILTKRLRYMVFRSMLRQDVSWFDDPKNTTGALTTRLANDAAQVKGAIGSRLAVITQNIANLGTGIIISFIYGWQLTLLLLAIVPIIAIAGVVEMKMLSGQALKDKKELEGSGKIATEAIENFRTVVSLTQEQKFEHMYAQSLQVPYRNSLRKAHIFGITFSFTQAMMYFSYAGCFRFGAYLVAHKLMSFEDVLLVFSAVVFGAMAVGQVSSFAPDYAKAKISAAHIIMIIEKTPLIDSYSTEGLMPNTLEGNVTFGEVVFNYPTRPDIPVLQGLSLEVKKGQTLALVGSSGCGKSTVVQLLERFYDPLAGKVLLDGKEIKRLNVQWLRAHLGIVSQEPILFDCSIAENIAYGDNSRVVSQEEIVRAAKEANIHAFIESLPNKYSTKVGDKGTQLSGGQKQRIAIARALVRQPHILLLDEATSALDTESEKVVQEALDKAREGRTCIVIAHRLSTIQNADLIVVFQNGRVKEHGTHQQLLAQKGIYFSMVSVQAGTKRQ

[3] = molecular target: T1, ATP-dependent translocase ABCB1; assay: as §1, with “25” for “1.56”; format: cell-based
[4] = molecular target: T1, ATP-dependent translocase ABCB1; assay: Inhibition of P-gp-mediated doxorubicin efflux in human Lucena 1 cells preincubated for 1 hr followed by doxorubicin addition measured after 1 hr by flow cytometry; format: cell-based
[5] = molecular target: T1, ATP-dependent translocase ABCB1; assay: as §1, with “6.25” for “1.56”; format: cell-based
[6] = molecular target: T1, ATP-dependent translocase ABCB1; assay: Inhibition of P-gp-mediated Rho-123 efflux in human Lucena 1 cells at […] preincubated for 1 hr followed by Rho-123 addition measured after 1 hr by flow cytometry; format: cell-based
[7] = molecular target: T1, ATP-dependent translocase ABCB1; assay: as §1, with “0.39” for “1.56”; format: cell-based
[8] = system: PBMC; assay: Cytotoxicity against human PBMC at 25 uM after 48 hrs by MTT assay relative to control; format: cell-based
[9] = system: PBMC; assay: Cytotoxicity against human PBMC at 6.25 uM after 48 hrs by MTT assay; format: cell-based
[10] = system: K562; assay: Potentiation of doxorubicin-induced cytotoxicity in human K562 cells assessed as decrease in doxorubicin IC50 at 1.56 uM after 48 hrs by MTT assay; format: functional, cell-based
[11] = molecular target: T1, ATP-dependent translocase ABCB1; assay: as §1, with “0.78” for “1.56”; format: cell-based
[12] = molecular target: P-gp (ABCB1) (Homo sapiens, UniProt P08183); assay: Stimulation of P-gp (unknown origin) ATPase activity at 10 uM relative to control; settings: read-out: Activity
Chain of P-gp (ABCB1) (P08183 whole entry): as above

[13] = system: K562; format: functional, cell-based; settings: Homo sapiens, 3.12 uM
[14] = molecular target: T1, ATP-dependent translocase ABCB1; assay: Inhibition of P-gp-mediated Rho-123 efflux in human Lucena 1 cells at 50 uM preincubated for 1 hr followed by Rho-123 addition measured after 1 hr by flow cytometry; format: cell-based

For CC/C(=C(/CC)c1ccc(OCCOC(C)=O)cc1)c1ccc(OCCOC(C)=O)cc1, the inhibition [1] was “inactive”, the Ratio [2] was 1.03 and the Ratio [3] was 1.21. For the same molecule, the “inhibition (INH)” value [4] was “Dose-dependent effect” and the Ratio [5] was 1.12.

Molecule CC/C(=C(/CC)c1ccc(OCCCCS(=O)(=O)[O-])cc1)c1ccc(OCCCCS(=O)(=O)[O-])cc1.[Na+].[Na+] has a Ratio [3] of 0.95.

Molecule COc1ccc(-n2nc(C)c3c2NC(=O)C[C@@H]3c2ccc(O)c(OC)c2)cc1 has a Ratio [3] of 1.11.

Work on Cc1c(-c2ccc(O)c(O)c2)[nH]c2ccc(OCCO)cc12 yielded a Ratio [3] of 1.01.

Molecule CC/C(=C(/CC)c1ccc(S(=O)(=O)[O-])cc1)c1ccc(S(=O)(=O)[O-])cc1.[Na+].[Na+] has a Ratio [3] of 0.99.

For CC/C(=C(/CC)c1ccc(OCCCCO)cc1)c1ccc(OCCCCO)cc1, the inhibition [1] was “inactive”, the INH [6] was “Active” and the Ratio [7] was 1. It also gave an Activity [8] of 41%, a Ratio [2] of 1.1 and a Ratio [3] of 1.32. The Activity [9] was “Non-Toxic”, the “inhibition (INH)” value [4] was “Dose-dependent effect” and the Activity [10] was “inactive”. For the same molecule, the Ratio [5] was 1.08 and the Ratio [11] was 0.99.

With Cc1c(-c2ccc(O)c(O)c2)[nH]c2ccc(O)cc12 the Ratio [3] was 0.72.

With Cc1c(-c2ccc(O)c(O)c2)n(C)c2ccc(O)cc12 the Ratio [3] was 0.75.

In the case of Cc1c(-c2ccc(O)cc2)[nH]c2ccc(O)cc12, the Ratio [3] was 0.8.

In the case of CC/C(=C(/CC)c1ccc(OCCO)cc1)c1ccc(OCCO)cc1, the inhibition [1] was “inactive”, the Ratio [3] was 1.16 and the “inhibition (INH)” value [4] was “Dose-dependent effect”. It also gave a Ratio [5] of 1.08.

With COc1ccc2[nH]c(-c3ccc(OC)c(OC)c3)c(C)c2c1 the Ratio [3] was 0.9.

Molecule CC/C(=C(/CC)c1ccc(OCCOS(=O)(=O)[O-])cc1)c1ccc(OCCOS(=O)(=O)[O-])cc1.[Na+].[Na+] has a Ratio [3] of 1.04.

In the case of COc1cc([C@@H]2CC(O)=Nc3c2cnn3Cc2cccs2)ccc1O, the Ratio [3] was 0.96.

CC/C(=C(\c1ccccc1)c1ccc(OCCN(C)C)cc1)c1ccccc1 [TAMOXIFEN] was tested, and the INH [6] was “Active” and the Ratio [3] was 1.13.

With CC/C(=C(/CC)c1ccc(OCCCOC(C)=O)cc1)c1ccc(OCCCOC(C)=O)cc1 the inhibition [1] was “inactive”, the Ratio [2] was 1.02 and the Ratio [3] was 1.21. For the same molecule, the “inhibition (INH)” value [4] was “Dose-dependent effect” and the Ratio [5] was 1.06.

For CC/C(=C(/CC)c1ccc(OCCCS(=O)(=O)[O-])cc1)c1ccc(OCCCS(=O)(=O)[O-])cc1.[Na+].[Na+], the Ratio [3] was 1.03.

For CC/C(=C(/CC)c1ccc(OCCCCOC(C)=O)cc1)c1ccc(OCCCCOC(C)=O)cc1, the inhibition [1] was “inactive”, the Ratio [2] was 1.01 and the Ratio [3] was 1.18. The “inhibition (INH)” value [4] was “Dose-dependent effect” and the Ratio [5] was 1.09.

In the case of CC/C(=C(/CC)c1ccc(O)cc1)c1ccc(O)cc1 [DIETHYLSTILBESTROL], the inhibition [1] was “inactive”, the activity at 10 µM [12] was 45% and the Ratio [3] was 1.06. For the same molecule, the Ratio [5] was 1.04.

With CC/C(=C(/CC)c1ccc(OC)cc1)c1ccc(OC)cc1 the inhibition [1] was “inactive”, the Ratio [3] was 1.19 and the “inhibition (INH)” value [4] was “Dose-dependent effect”. The Ratio [5] was 1.09.

CC/C(=C(/CC)c1ccc(OCCCO)cc1)c1ccc(OCCCO)cc1 was tested, and the inhibition [1] was “inactive”, the Activity [8] was 34.67% and the Ratio [2] was 1.05. The Activity [13] was “inactive”, the “inhibition (INH)” value [14] was “Active” and the Ratio [3] was 1.23. The Activity [9] was “Non-Toxic”, the “inhibition (INH)” value [4] was “Dose-dependent effect” and the Ratio [5] was 1.09. The Ratio [11] was 0.98.
